Reference: US7169787B2, “7-azaindoles, use thereof as phosphodiesterase 4 inhibitors and method for producing the same” (Elbion AG, priority 2000, dated 2007)

How the values were obtained:
PDE 4 = assay: Inhibition of phosphodiesterase 4 (enzyme preparation from human PMNL, [3H]-cAMP); assay type: biochemical; conditions: PDE 4 from human PMNL cytosol, 0.5 μM [3H]-cAMP
Procedure: The PDE 4 activity is determined in enzyme preparations from human polymorphonuclear […] (PMNL) and the PDE 2, 3 and 5 activity is determined with PDE from human thrombocytes. Human blood was anti-coagulated with citrate. By centrifuging at 700×g for 20 minutes at room temperature, the thrombocyte-rich plasma in the supernatant is separated from the erythrocytes and leukocytes. The thrombocytes are lysed by ultrasound and used in the PDE 3 and PDE 5 assays. For the determination of the PDE 2 activity, the cytosolic thrombocyte fraction is purified on an anionic exchange column by means of NaCl gradients and the PDE 2 peak is obtained for the assay. The PMNLs for the PDE 4 determination are isolated by a subsequent dextran sedimentation, followed by a gradient centrifugation with Ficoll-Paque. After the cells have been washed twice, the erythrocytes, still contained, are lysed within 6 minutes at 4° C. by the addition of 10 mL of hypotonic buffer (155 mM of NH4Cl, 10 mM of NaHCO3, 0.1 mM of EDTA, pH=7.4). The PMNLs, which are still intact, are washed twice with PBS and lysed with ultrasound. The supernatant of a one-hour centrifugation at 4° C. at 48,000×g contains the cytosolic fraction of the PDE 4 and is used for the PDE 4 measurements.
The phosphodiesterase activity is determined using the method described by Thompson et al. with some modifications (Thompson, W. J. and M. M. Appleman, Assay of cyclic nucleotide phosphodiesterase and resolution of multiple molecular forms of the enzyme, Adv. Cycl. Nucl. Res. 1979, 10, 69–92).
The reaction mixtures contain 50 mM of tris hydrochloride (pH 7.4), 5 mM of magnesium chloride, the inhibitors in various concentrations, the corresponding enzyme preparation as well as the further components necessary for determining the individual isoenzymes (see below). The reaction is started by the addition of the substrate, 0.5 μM of [^3H]-cAMP or [^3H]-cGMP (approximately 6000 CPM per test). The final volume is […]. Test substances are mixed as stock solutions in DMSO. The DMSO concentration in the reaction mixture is 1% v/v. The PDE activity is not affected by this concentration of DMSO. After the reaction is started by the addition of substrate, samples are incubated for 30 minutes at 37° C. The reaction is stopped by heating the test tubes for 2 minutes at 110° C. The samples remain for a further 10 minutes in ice. The addition of 30 μL of 5′-nucleotidase (1 mg/mL, from a poisonous snake suspension from Crotalus adamanteus) is followed by a 10-minutes incubation at 37° C. The samples are stopped on ice, in each case 400 μL of a mixture of Dowex, water and ethanol (1+1+1) is added, mixed well and incubated once again for 15 minutes on ice. The reaction vessels are centrifuged for 20 minutes at 3000×g. Aliquots of the supernatant (200 μL) are transferred directly to scintillation vessels. After the addition of 3 mL of scintillator, the samples are measured in the beta counter.
[^3H]-cAMP is used as substrate for the determination of the PDE 4, 3 and 2 activity and [^3H]-cGMP is used as substrate for the determination of the PDE 5 activity. The enzyme activities, which are nonspecific in each case, are determined in the presence of 100 μM of Rolipram for the determination of PDE 4 and in the presence of 100 μM of IBMX for the determination of the PDE 3 and 5 and subtracted from the test values. The incubation formulations of the PDE 3 assays contained 10 μM of Rolipram, in order to inhibit possible contaminations by PDE 4. The PDE 2 is tested with an SPA assay of the Amersham Company. The assay is carried out in the presence of the activator of the PDE 2 (5 μM of cGMP).

[1] = test system: actively sensitized Brown Norway Rats; assay: Inhibition of the late phase eosinophilia 48 hours after inhalative ovalbumin challenge; assay type: in vivo, rat; conditions: 2 h before allergen challenge, BAL 48 h after challenge
Procedure: The inhibition of pulmonary eosinophilia infiltration by the inventive substances is tested on male Brown Norway Rats (200–250 g), which had been actively sensitized against ovalbumin (OVA). The rats were sensitized by subcutaneous injections of a suspension of 10 μg OVA together with 20 mg of aluminum hydroxide as adjuvant in 0.5 mL of physiological salt solution per animal on days 1, 14 and 21. In addition, the animals at the same time received Bordetella pertussis vaccine dilution injected 0.25 mL i.p. per animal. On the 28th day of the experiment, the animals are placed individually in open 1 L Plexiglas boxes, which are connected to a head-nose exposure device. The animals are exposed to an aerosol of 1.0% ovalbumin suspension (allergen challenge). The ovalbumin aerosol is produced by a nebulizer (Bird Micronebulizer, Palm Springs Calif., USA), which is operated with compressed air (0.2 MPa). The exposure time is one hour, normal controls being nebulized also for one hour with an aerosol of 0.9% salt solution.
Forty-eight hours after the allergen challenge, there is a massive migration of eosinophilic granulocytes into the lungs of the animals. At this time, the animals are anesthetized with an excess of ethyl urethane (1.5 g/kg of body weight i.p.) and a bronchoalveolar lavage (BAL) with 3×4 mL of Hank's balance solution is carried out. The total cell count and the number of eosinophilic granulocytes of the pooled BAL liquid are subsequently determined with an automatic cell differentiation instrument (Bayer Diagnostics Technicon HIE). For each animal, the eosinophiles (EOS) in the BAL are calculated in millions/animal: EOS/μl×BAL recovery (mL)=EOS/animal.
For each test, 2 control groups were run (nebulization with physiological salt solution and nebulization with OVA solution).
The percentage inhibition of the eosinophilia of the experimental group, treated with substance, was calculated according to the following formula: {((OVAC−SC)−(OVAD−SC))/(OVAC−SC)}×100%=% inhibition (SC=vehicle-treated control group challenged with 0.9% salt solution; OVAC=vehicle-treated control group challenged with 1% ovalbumin suspension; OVAD=substance-treated experimental group challenged with 1% ovalbumin suspension)
The test substances are applied i.p. or orally as a suspension in 10% polyethylene glycol 300 and 0.5% 5-hydroxyethylcellulose for two hours before the allergen challenge. The control groups are treated with the vehicle in accordance with the application form of the test substance.

| Compound | IC50 (PDE 4) [nM] | Inhibition of Eosinophilia ([1]; 10 mg/kg i.p.) [%] | Inhibition of Eosinophilia ([1]; 10 mg/kg p.o.) [%] | melting point [°C] |
| --- | --- | --- | --- | --- |
| CC(C)Cn1cc(C(=O)C(=O)Nc2c(Cl)cncc2Cl)c2cccnc21 [Example 27] | 2 | 50 | 70 | 152 to 154 |
| O=C(Nc1c(Cl)cncc1Cl)C(=O)c1cn(Cc2ccc(F)cc2)c2ncccc12 [Example 14] | 4 | 62 | 59 | – |
